What was measured:
[1] = test system: subjects with type 2 diabetes and nephropathy; test: Example 4: combined data of Examples 1 and 2, statin / non-statin sub-populations, total and LDL cholesterol; assay type: in vivo, human; design: Total C, Mean Change / LDL, Mean Change: unit not given here
Method: A review of the data obtained from the studies detailed in Examples 1 and 2, above, with respect to total serum cholesterol and serum LDL cholesterol, indicated a meaningful reduction was achieved relative to baseline for both. For example, although the reduction in total serum cholesterol and serum LDL cholesterol for subjects receiving a 0.75 mg dose of atrasentan, after 12 weeks of therapy, varied, the average for both of the studies detailed in Examples 1 and 2 was approximately 14%. As a result, the data obtained from these studies as further reviewed subsequent to collection and a sub-population of subjects in each study was identified as receiving or taking a statin in combination with the atrasentan dose (either a 0.75 mg or 1.25 mg dose). The data relating to the impact of atrasentan on total serum cholesterol and serum LDL cholesterol from each study for this sub-population was combined and a new average (mean) baseline, as well as change relative thereto over the time period of the study, was calculated for each of the total serum cholesterol and serum LDL cholesterol. For purposes of comparison, data relating to the impact of atrasentan on total serum cholesterol and serum LDL cholesterol for each study for subjects that were not receiving or taking a statin was combined and a new average (mean) baseline, as well as change relative thereto over the time period of the study, was also calculated for each of the total serum cholesterol and serum LDL cholesterol.

[2] = test system: subjects with type 2 diabetes and nephropathy; test: Example 3: Phase 2b randomized, double-blind, placebo-controlled 8-week study with thoracic bioimpedance; assay type: in vivo, human; details: for Death / Fatal adverse event: N = 16; for UACR Change from Baseline LS Mean (SE) / UACR Geometric Mean Change (Percent): baseline to final on-treatment measurement
Source text: This study also included measurement of thoracic bioimpedance to assess the potential for thoracic fluid retention with atrasentan.
An equal percentage of subjects in all 3 groups experienced an adverse event (81.3%). […] (Table 17).
A mean decrease of 4 ohms in thoracic bioimpedance, as measured by the ZOE® Fluid Status Monitor, is considered clinically indicative of thoracic fluid overload. Mean thoracic bioimpedance fluctuated in all treatment groups over time, with greater mean changes in the 2 atrasentan groups than in the placebo group.

[3] = subjects not receiving statins, 0.75 mg
[4] = subjects receiving statins and 0.75 mg of atrasentan

## CCCCN(CCCC)C(=O)CN1C[C@H](c2ccc3c(c2)OCO3)[C@@H](C(=O)O)[C@@H]1c1ccc(OC)cc1 [Atrasentan, (2R,3R,4S)-4-(1,3-benzodioxol-5-yl)-1-[2-(dibutylamino)-2-oxoethyl]-2-(4-methoxyphenyl)pyrrolidine-3-carboxylic acid]
[1]; 0.75 mg dose, after 12 weeks of therapy
  reduction in total serum cholesterol and serum LDL cholesterol relative to baseline, average for both studies (Examples 1 and 2): approximately 14%
[1]; Non-Statin, 0.75 mg
  LDL, % Change: −13.1%
  LDL, Mean Change: −13.4
  Total C, % Change: −9.3%
  Total C, Mean Change: −14.9
[1]; Non-Statin, 1.25 mg
  LDL, % Change: −18.8%
  LDL, Mean Change: −21.0
  Total C, % Change: −12.8%
  Total C, Mean Change: −18.4
[1]; Statin sub-population, 0.75 mg
  LDL, % Change: −15.4%
  LDL, Mean Change: −12.8
  Total C, % Change: −10.4%
  Total C, Mean Change: −17.1
[1]; Statin sub-population, 1.25 mg
  LDL, % Change: −14.2%
  LDL, Mean Change: −11.6
  Total C, % Change: −10.4%
  Total C, Mean Change: −17.1
[1]; [3]
  reduction in LDL cholesterol: 13%
  reduction in total cholesterol: 9%
[1]; [4]
  reduction in LDL cholesterol: 15%
  reduction in total cholesterol: 10%
[2]; 0.5 mg
  Death: 0 N (%) of Subjects
  Fatal adverse event: 0 N (%) of Subjects
[2]; 0.5 mg/day
  Cholesterol, Difference (95% CI) from placebo: 3.6 (−19.26, 26.46) mg/dL
  Cholesterol, Final On-Treatment Visit Mean (SD): 155.1 (40.36) mg/dL
  Cholesterol, LS Mean Change from Baseline (SE): −1.5 (7.05) mg/dL
  HDL-C, Difference (95% CI) from placebo: 1.9 (−3.54, 7.28) mg/dL
  HDL-C, Final On-Treatment Visit Mean (SD): 41.1 (9.92) mg/dL
  HDL-C, LS Mean Change from Baseline (SE): −0.5 (1.67) mg/dL
  Had ≧30% Reduction in UACR and No Edema (no moderate or severe adverse event of edema): 31.3%
  LDL-C, Difference (95% CI) from placebo: 3.1 (−19.49, 25.75) mg/dL
  LDL-C, Final On-Treatment Visit Mean (SD): 68.1 (23.33) mg/dL
  LDL-C, LS Mean Change from Baseline (SE): −0.3 (6.67) mg/dL
  Percentage of Subjects with ≧30% Reduction in Log-Transformed UACR from Baseline to Final Measurement: 50.0%
  Percentage of Subjects with ≧40% Reduction in Log-Transformed UACR from Baseline to Final Measurement: 31.3%
  Percentage of Subjects with ≧50% Reduction in Log-Transformed UACR from Baseline to Final Measurement: 18.8%
  Triglycerides, Difference (95% CI) from placebo: −29.8 (−14.09, 44.49) mg/dL
  Triglycerides, Final On-Treatment Visit Mean (SD): 206.1 (71.42) mg/dL
  Triglycerides, LS Mean Change from Baseline (SE): −2.3 (22.89) mg/dL
  geometric mean reduction in UACR, baseline to final on-treatment measurement: 27.7%
  UACR Change from Baseline LS Mean (SE): −0.32 log mg/g creatinine
  UACR Geometric Mean Change (Percent): −27.69%
[2]; 0.5 mg/day vs placebo
  UACR Between-group Comparison Difference (90% CI): 0.04 (−0.28, 0.36)
[2]; 1.25 mg
  Death: 0 N (%) of Subjects
  Fatal adverse event: 0 N (%) of Subjects
[2]; 1.25 mg/day
  Cholesterol, Difference (95% CI) from placebo: −14.7 (−37.99, 8.54) mg/dL
  Cholesterol, Final On-Treatment Visit Mean (SD): 169.4 (46.02) mg/dL
  Cholesterol, LS Mean Change from Baseline (SE): −19.9 (7.30) mg/dL
  HDL-C, Difference (95% CI) from placebo: −1.4 (−6.89, 4.13) mg/dL
  HDL-C, Final On-Treatment Visit Mean (SD): 53.9 (22.23) mg/dL
  HDL-C, LS Mean Change from Baseline (SE): −3.7 (1.73) mg/dL
  Had ≧30% Reduction in UACR and No Edema (no moderate or severe adverse event of edema): 28.6%
  LDL-C, Difference (95% CI) from placebo: −9.8 (−33.30, 13.64) mg/dL
  LDL-C, Final On-Treatment Visit Mean (SD): 78.9 (37.01) mg/dL
  LDL-C, LS Mean Change from Baseline (SE): −13.3 (7.21) mg/dL
  Percentage of Subjects with ≧30% Reduction in Log-Transformed UACR from Baseline to Final Measurement: 42.9%
  Percentage of Subjects with ≧40% Reduction in Log-Transformed UACR from Baseline to Final Measurement: 42.9%
  Percentage of Subjects with ≧50% Reduction in Log-Transformed UACR from Baseline to Final Measurement: 35.7%
  Triglycerides, Difference (95% CI) from placebo: −31.0 (−108.09, 46.10) mg/dL
  Triglycerides, Final On-Treatment Visit Mean (SD): 187.1 (115.90) mg/dL
  Triglycerides, LS Mean Change from Baseline (SE): −3.5 (24.59) mg/dL
  geometric mean reduction in UACR, baseline to final on-treatment measurement: 37.4%
  total cholesterol, LDL-C, and triglycerides compared with placebo: greater mean decreases
  UACR Change from Baseline LS Mean (SE): −0.47 log mg/g creatinine
  UACR Geometric Mean Change (Percent): −37.45%
[2]; 1.25 mg/day vs placebo
  UACR Between-group Comparison Difference (90% CI): −0.11 (−0.43, 0.21)

From patent US9855245B2, “Methods for improving lipid profiles using atrasentan” (AbbVie Inc., priority 2013, dated 2018)
